A word on the IC50: it is the midpoint of a concentration-inhibition curve.

The values that follow come from US8022206B2 (OSI Pharmaceuticals, LLC, priority 2008, dated 2011).

In one test the target is MET (human) (Homo sapiens, UniProt P08581). The test is described as follows: MET (human) AlphaScreen kinase assay, Km of ATP. The test is classed as biochemical. The following applies: AlphaScreen, Km of ATP; read-out: Met biochemical IC50. Put shortly:
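Human MET at lot-optimised concentration in 50 mM Tris pH 7.4 buffer with 1 mM DTT, compound at 1% DMSO final; enzyme starts the reaction, 60 min at RT.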
In general terms: Bead proximity is the source of the signal in Alpha formats.

The target in the next test is RON (human) (Homo sapiens, UniProt Q04912). Description: RON (human) AlphaScreen kinase assay, Km of ATP. The format is biochemical. The following applies: AlphaScreen, Km of ATP; read-out: RON biochemical IC50. Put shortly: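 Detection used PT66 AlphaScreen beads added in Tris pH 7.5/NaCl/EDTA/BSA buffer, read after 1 h incubation. Vehicle-only DMSO wells served as controls.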
RON (human), sequence (Q04912 25-1400): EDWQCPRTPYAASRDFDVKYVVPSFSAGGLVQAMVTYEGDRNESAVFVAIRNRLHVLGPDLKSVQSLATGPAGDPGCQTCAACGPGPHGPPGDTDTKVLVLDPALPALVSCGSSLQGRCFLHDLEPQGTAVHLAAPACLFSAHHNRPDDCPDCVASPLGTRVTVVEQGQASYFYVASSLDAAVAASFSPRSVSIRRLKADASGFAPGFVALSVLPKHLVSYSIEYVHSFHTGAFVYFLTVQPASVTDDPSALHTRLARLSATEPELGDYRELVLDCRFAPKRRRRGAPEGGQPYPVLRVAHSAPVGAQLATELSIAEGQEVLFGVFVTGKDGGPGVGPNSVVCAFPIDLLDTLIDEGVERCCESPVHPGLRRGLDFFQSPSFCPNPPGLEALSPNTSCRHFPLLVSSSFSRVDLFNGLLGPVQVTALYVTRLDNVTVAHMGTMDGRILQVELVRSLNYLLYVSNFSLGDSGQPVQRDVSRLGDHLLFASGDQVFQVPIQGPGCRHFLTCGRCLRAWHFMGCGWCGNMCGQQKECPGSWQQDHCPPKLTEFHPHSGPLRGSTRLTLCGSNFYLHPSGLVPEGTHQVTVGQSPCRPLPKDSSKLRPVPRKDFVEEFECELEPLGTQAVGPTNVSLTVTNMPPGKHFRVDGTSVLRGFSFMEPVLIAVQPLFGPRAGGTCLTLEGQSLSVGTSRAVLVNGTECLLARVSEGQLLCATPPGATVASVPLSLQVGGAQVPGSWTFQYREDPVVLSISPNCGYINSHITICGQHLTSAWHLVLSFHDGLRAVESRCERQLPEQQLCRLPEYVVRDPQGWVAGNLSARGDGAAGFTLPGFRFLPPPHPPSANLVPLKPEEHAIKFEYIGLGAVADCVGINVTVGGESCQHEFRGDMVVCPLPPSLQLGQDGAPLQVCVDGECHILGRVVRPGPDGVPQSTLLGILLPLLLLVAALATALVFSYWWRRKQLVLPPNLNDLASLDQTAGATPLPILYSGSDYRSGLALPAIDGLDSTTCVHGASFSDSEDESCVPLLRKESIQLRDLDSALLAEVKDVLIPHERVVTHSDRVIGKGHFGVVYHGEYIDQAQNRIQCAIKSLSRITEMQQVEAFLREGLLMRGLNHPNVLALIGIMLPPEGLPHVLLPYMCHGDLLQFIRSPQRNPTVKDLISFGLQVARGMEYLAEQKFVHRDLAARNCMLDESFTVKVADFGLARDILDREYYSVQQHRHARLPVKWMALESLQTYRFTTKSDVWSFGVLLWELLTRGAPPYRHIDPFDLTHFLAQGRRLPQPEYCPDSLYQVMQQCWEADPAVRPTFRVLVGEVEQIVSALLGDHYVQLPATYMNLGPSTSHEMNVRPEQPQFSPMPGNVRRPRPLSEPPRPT

SMILES strings stand for the structures.

MET (human), sequence (P08581 25-1390): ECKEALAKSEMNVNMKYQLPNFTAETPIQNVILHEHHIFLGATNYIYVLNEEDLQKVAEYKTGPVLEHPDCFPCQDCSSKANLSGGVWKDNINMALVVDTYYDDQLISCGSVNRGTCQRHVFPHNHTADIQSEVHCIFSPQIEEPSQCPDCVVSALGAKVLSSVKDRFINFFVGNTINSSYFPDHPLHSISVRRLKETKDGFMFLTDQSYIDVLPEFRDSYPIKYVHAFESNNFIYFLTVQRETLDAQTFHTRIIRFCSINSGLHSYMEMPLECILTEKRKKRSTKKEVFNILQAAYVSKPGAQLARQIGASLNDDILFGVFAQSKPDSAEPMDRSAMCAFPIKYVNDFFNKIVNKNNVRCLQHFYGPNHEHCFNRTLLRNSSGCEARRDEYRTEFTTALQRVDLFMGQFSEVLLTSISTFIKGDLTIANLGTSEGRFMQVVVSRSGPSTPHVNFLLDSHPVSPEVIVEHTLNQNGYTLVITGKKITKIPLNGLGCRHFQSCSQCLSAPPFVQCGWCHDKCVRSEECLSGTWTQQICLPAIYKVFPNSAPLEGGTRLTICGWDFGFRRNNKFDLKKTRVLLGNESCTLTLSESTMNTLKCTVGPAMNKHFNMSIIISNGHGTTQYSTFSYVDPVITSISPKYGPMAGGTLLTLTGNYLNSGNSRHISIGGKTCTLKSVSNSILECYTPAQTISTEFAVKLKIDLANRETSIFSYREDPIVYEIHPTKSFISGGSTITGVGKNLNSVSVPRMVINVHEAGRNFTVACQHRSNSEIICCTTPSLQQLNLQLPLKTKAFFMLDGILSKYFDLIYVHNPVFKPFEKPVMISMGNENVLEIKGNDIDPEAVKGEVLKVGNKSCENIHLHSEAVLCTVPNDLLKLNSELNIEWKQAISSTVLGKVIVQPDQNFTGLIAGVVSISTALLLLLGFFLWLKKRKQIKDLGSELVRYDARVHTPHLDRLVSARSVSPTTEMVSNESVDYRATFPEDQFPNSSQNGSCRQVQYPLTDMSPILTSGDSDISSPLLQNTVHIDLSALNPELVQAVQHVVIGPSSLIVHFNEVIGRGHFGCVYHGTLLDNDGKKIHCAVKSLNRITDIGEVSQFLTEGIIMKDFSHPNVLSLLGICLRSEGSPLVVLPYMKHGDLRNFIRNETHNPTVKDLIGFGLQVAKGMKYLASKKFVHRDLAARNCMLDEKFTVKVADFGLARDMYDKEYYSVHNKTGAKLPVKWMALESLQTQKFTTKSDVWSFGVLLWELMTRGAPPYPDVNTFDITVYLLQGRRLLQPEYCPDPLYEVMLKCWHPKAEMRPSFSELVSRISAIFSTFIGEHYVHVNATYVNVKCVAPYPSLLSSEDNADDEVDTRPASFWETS

For `C[C@H](N)C(=O)N1CC=C(c2coc3c(O[C@H](C)c4c(Cl)ccc(F)c4Cl)c(N)ncc23)CC1` [Example 251, (2S)-2-Amino-1-[4-{6-amino-7-[(1R)-1-(2,6-dichloro-3-fluoro-phenyl)ethoxy]furo[3,2-c]pyridin-3-yl}-3,6-dihydropyridin-1(2H)-yl]propan-1-one], the IC50 at MET (human) and on RON (human) was under 500 nM in each case.

Regarding `C[C@@H](N)C(=O)N1CC=C(c2coc3c(O[C@H](C)c4c(Cl)ccc(F)c4Cl)c(N)ncc23)CC1` [Example 252, (2R)-2-Amino-1-[4-{6-amino-7-[(1R)-1-(2,6-dichloro-3-fluoro-phenyl)ethoxy]furo[3,2-c]pyridin-3-yl}-3,6-dihydropyridin-1(2H)-yl]propan-1-one], the concentration for half-maximal inhibition (IC50) at MET (human) and at RON (human) was under 500 nM in each case.

As to `C[C@@H](Oc1c(N)ncc2c(C3=CCN(C(=O)CN)CC3)coc12)c1c(Cl)ccc(F)c1Cl` [Example 253, 2-Amino-1-[4-{6-amino-7-[(1R)-1-(2,6-dichloro-3-fluorophenyl)ethoxy]furo[3,2-c]pyridin-3-yl}-3,6-dihydropyridin-1(2H)-yl]ethanone], the IC50 on MET (human) and at RON (human) was under 500 nM each time.

As for `C[C@@H](Oc1c(N)ncc2c(C3=CCN(C(=O)[C@@H](N)CO)CC3)coc12)c1c(Cl)ccc(F)c1Cl` [Example 254, (2S)-2-Amino-1-[4-{6-amino-7-[(1R)-1-(2,6-dichloro-3-fluoro-phenyl)ethoxy]furo[3,2-c]pyridin-3-yl}-3,6-dihydropyridin-1(2H)-yl]-3-hydroxypropan-1-one], the IC50 at MET (human) and at RON (human) was under 500 nM in each case.

As to `C[C@@H](Oc1c(N)ncc2c(C3=CCN(C(=O)[C@H](N)CO)CC3)coc12)c1c(Cl)ccc(F)c1Cl` [Example 255, (2R)-2-Amino-1-[4-{6-amino-7-[(1R)-1-(2,6-dichloro-3-fluoro-phenyl)ethoxy]furo[3,2-c]pyridin-3-yl}-3,6-dihydropyridin-1(2H)-yl]-3-hydroxypropan-1-one], the IC50 on MET (human) and on RON (human) was under 500 nM each time.

`C[C@@H](Oc1c(N)ncc2c(C3=CCN(C(=O)[C@@H](N)Cc4ccccc4)CC3)coc12)c1c(Cl)ccc(F)c1Cl` [Example 256, (2S)-2-Amino-1-[4-{6-amino-7-[(1R)-1-(2,6-dichloro-3-fluoro-phenyl)ethoxy]furo[3,2-c]pyridin-3-yl}-3,6-dihydropyridin-1(2H)-yl]-3-phenylpropan-1-one]: the values for the IC50 at MET (human) and on RON (human) were under 500 nM and 500 to 5000 nM, respectively.

On to `C[C@@H](Oc1c(N)ncc2c(C3=CCN(C(=O)[C@H](N)Cc4ccccc4)CC3)coc12)c1c(Cl)ccc(F)c1Cl` [Example 257, (2R)-2-Amino-1-[4-{6-amino-7-[(1R)-1-(2,6-dichloro-3-fluoro-phenyl)ethoxy]furo[3,2-c]pyridin-3-yl}-3,6-dihydropyridin-1(2H)-yl]-3-phenylpropan-1-one], for which the results for the IC50 on MET (human) and at RON (human) were under 500 nM and 500 to 5000 nM, respectively.

Take `C[C@@H](Oc1c(N)ncc2c(C3=CCN(C(=O)C(N)C(F)(F)F)CC3)coc12)c1c(Cl)ccc(F)c1Cl` (stereo partly drawn) [Example 260, 2-Amino-1-[4-{6-amino-7-[(1R)-1-(2,6-dichloro-3-fluorophenyl)-ethoxy]furo[3,2-c]pyridin-3-yl}-3,6-dihydropyridin-1(2H)-yl]-3,3,3-trifluoropropan-1-one]: the IC50 at MET (human) and on RON (human) was 500 to 5000 nM throughout.

Consider `C[C@@H](Oc1c(N)ncc2c(C3=CCN(C(=O)[C@@H](N)c4ccccc4)CC3)coc12)c1c(Cl)ccc(F)c1Cl` [Example 261, (2S)-2-Amino-1-[4-{6-amino-7-[(1R)-1-(2,6-dichloro-3-fluoro-phenyl)ethoxy]furo[3,2-c]pyridin-3-yl}-3,6-dihydropyridin-1(2H)-yl]-2-phenylethanone], for which the IC50 is under 500 nM at MET (human) and 500 to 5000 nM at RON (human).
